Results published in US20250305982A1, “DEVICE AND METHOD FOR THE DETECTION OF BIOMARKERS ASSOCIATED WITH NEURODEGENERATIVE DISEASES” (CONSEJO NACIONAL DE INVESTIGACIONES CIENTÍFICAS Y TÉCNICAS …, priority 2022, published 2025).
Values belong to the molecule of their own block, whether it stands above or below them.

Tests used:
amyloid aggregates = settings: González-Lizárraga (2017), Medina (2021); cited from earlier work
AS fibers = biological target: T1, AS fibers (Homo sapiens, UniProt P37840); assay: Cyclic voltammetry with gold biosensors modified with Doxy-5; type: binding
T1 construct: made in house; host or cells: E. coli BL21
Description: A comparative study for different crosslinking agents for the immobilization of Doxy-5 on gold conductive surfaces was performed. 3-mercaptopropionic acid (MPA), which is able to form self-assembled monolayers (SAM) on the substrate thus facilitating its functionalization, was used. Gold was chosen because it is inert for the molecule of interest. Additionally, the use of other agents such as 1-ethyl-3-(3-dimethylaminopropyl) carbodiimide hydrochloride (EDC) and N-hydroxysuccinimide (NHS), either for generating or activating present moieties, is necessary for the formation of covalent bonds with Doxy-5. Concentrations and incubation times were optimized in each modification stage of the gold surface.
Cyclic voltammetry (CV) measurements were first carried out to characterize each of the immobilization stages on a gold substrate. Said measurements were carried out in a cell with tripolar configuration using a platinum electrode as counter electrode, a silver/silver chloride reference electrode, and the modified gold electrodes as working electrodes. The electrolyte [Fe(CN)6]K4, containing the Fe^3+/Fe^2+ redox pair, was used in every characterization assay. […] CV and EIS measurements were also performed in each immobilization stage using phosphate buffer (PBS) at pH 7.4 (FIG. 1). […]

fibrillar AS = biological target: T2, fibrillar AS (Homo sapiens, UniProt P37840); assay: Sandwich immunoassay, Doxy-5 adsorbed on polystyrene microplates; type: binding
T2 construct: made in house; host or cells: E. coli BL21
Description: The design is based on an immunoassay with a conventional sandwich system involving the capture of fibrillar species of AS by Doxy-5, followed by detection with two antibodies: an anti-human AS antibody, and an antibody conjugated to a peroxidase. Briefly, the compound of formula (II) is incubated in polystyrene microplates wherein it is adsorbed. After several rinses, to eliminate any non-adsorbed molecules, the system is incubated with a primary anti-human AS rabbit antibody. After rinsing, the system is then incubated with a secondary anti-rabbit antibody conjugated to peroxidase. The conjugated antibody reacts specifically with the primary antibodies which are bound to the immunocaptured AS. […] After incubating, a blue color develops, whose intensity depends on the concentration and the affinity of Doxy-5 to the AS species. The enzymatic reaction is stopped by the addition of sulfuric acid, which produces a color shift towards yellow which is spectrometrically quantifiable at 450 nm.
(§1) The 96-well polystyrene plate was sensitized by incubation overnight a 4° C. and protected from light with 20 μg/mL of the compound of formula (II) in 20 mM sodium acetate pH 5 (50 μL/well). The plate was rinsed with PBST (PBS 10 mM pH 7.4+Tween-80 0.01%) and blocked with 150 μL/well of a 0.1% lysozyme solution in PBS 10 mM pH 7.4 during 1 h at 37° C. After rinsing, 50 μL of the samples with the analytes of interest prepared in 10 mM PBS pH 7.4 were added to each well, and the plate was incubated at 37° C. for 2 h. […] Immediately thereafter, the developed absorbance is measured with a TECAN Spark microplate reader.
The focus of the immunoassay takes advantage of the generation of a colored compound by action of the peroxidase on the substrate (TMB), which is proportional to the concentration of the AS analytes captured by Doxy-5. The absorbance readings at 450 nm were acquired with a TECAN Spark microplate reader. […]

Tau aggregates (PFF) = assay: Immunoassay, Doxy-5 bound to BSA through glutaraldehyde on polystyrene microplate; type: binding; settings: Taum 100 ng/ml, PFF 1/10000 dilution; Doxy-5 40 μg/ml; FIG. 6
Description: The sensitization of the wells was carried out as follows: first, the binding sites of the microplate were blocked with albumin. Afterwards, compound of formula (II) was covalently linked to albumin by using glutaraldehyde as the linker.
For this purpose, a 96-well polystyrene microplate was incubated with 150 μL/well of 1% bovine serum albumin (BSA) overnight at 4° C. in a humid chamber. Then, after three cycles of washing with PBST, 50 μL/well of glutaraldehyde at different concentrations (0.1%, 0.5% and 1%) were added to the wells and the plate was kept during specified times (either 10 minutes for every concentration, or 5 minutes for 0.5% and 1%) under a hood. Wells were then washed three times with PBS, and 50 μL/well of Doxy-5 (40 μg/ml) were added. The plate was then incubated at 37° C. for 30 minutes, protected from light. Afterwards, the wells were washed again with PBST, and 50 μL/well of 1M TRIS was added as a glutaraldehyde-inactivating agent. The microplate was then incubated at 37° C. for 30 minutes. […] To stop the reaction, 25 μL/well of 2N H2SO4 were added, and the microplate was immediately read on a microplate reader (Tecan Spark, Austria) at the wavelength of 450 nm.

AS PFF = biological target: T3, AS PFF (Homo sapiens, UniProt P37840); assay: Comparative binding of immobilized doxycycline hyclate and Doxy-5 to AS aggregates; settings: AS aggregates 20 ng/ml; polystyrene microplates; FIG. 8
T3 construct: made in house; host or cells: E. coli BL21
Description: as §1, with “h. The plate is then rinsed again, and 50 μL of the anti-AS antibody diluted to 1 μg/ml in 10% bovine fetal serum (BFS in 10 mM PBS pH 7.4) were added to each well, after which the plate was incubated 1.5 h. The plate was rinsed once more and incubated at 37° C. during 1 h with 50 μL/well of the antibody conjugated with peroxidase diluted to 1 μg/ml in 10% bovine fetal serum.” for “h.”
Both doxycycline hyclate and Doxy-5 were immobilized on polystyrene microplates and contacted with AS aggregates (PPF) according to the protocol described in Example 4, using a concentration for the AS aggregates of 20 ng/ml. The binding of the AS aggregates to each molecule was determined as described in Example 4 as well.

Molecule: Nc1c(/N=N/c2ccc(-c3ccc(/N=N/c4cc(S(=O)(=O)O)c5ccccc5c4N)cc3)cc2)cc(S(=O)(=O)O)c2ccccc12 [Congo red]
- binding to amyloid aggregates structures (amyloid aggregates): strong and specific binding

Molecule: Cc1ccc2c(c1)sc(-c1ccc(N(C)C)cc1)[n+]2C.[Cl-] [Thioflavin T]
- binding to amyloid aggregates structures (amyloid aggregates): strong and specific binding

- electrochemical response of the sensor in the presence of the AS fibers (oxidation peak of voltammogram) (AS fibers; CV, -0.6 V to 0.6 V, 30 mV/seg, Doxy-5 on MPA-SAM gold electrode): clear electrochemical response
- interference of the AS monomer in CV response (AS fibers; monomer up to 100 ng/ml, response lower than fibers at 0.1 ng/mL): non-existing interference of the monomer
- cross-reaction with native (monomeric) AS (fibrillar AS; native AS as negative control): no cross-reaction
- signal for binding to AS PFF (AS PFF): significantly higher
Molecule: C[C@H]1c2ccc(N)c(O)c2C(=O)C2=C(O)[C@]3(O)C(=O)C(C(N)=O)=C(O)CC3[C@@H](O)C21 (stereo partly shown) [Doxy-5, 9-amino-4-dedimethylamino doxycycline]
- AS concentrations showing the best differential reactivity between aggregated and monomeric species (fibrillar AS; wells sensitized with Doxy-5): over 30 ng/mL
- affinity towards fibrillar AS (fibrillar AS; wells sensitized with Doxy-5, absorbance 450 nm): nanomolar affinity
- discrimination between Tau monomer (Taum) and pre-formed fibrils (PFF), signal at 450 nm (Tau aggregates (PFF)): higher signal for PFF compared with Taum and PBS

- signal for binding to AS PFF (AS PFF): positive signal
Molecule: doxycycline hyclate [reference compound]
